Laboratory results: paper PMC12396409, “Screening and hit evaluation of a microbial metabolite library against the pathogenic Plasmodium falciparum and Toxoplasma gondii parasites” (International Journal for Parasitology: Drugs and Drug …, 2025)
Read-outs that look alike come from different tables or passages of the source. *1 amine or outer side, *2 acyl side, *3 side chain or, on linkers, in order; H or OH if unused. Where a SMILES comes first, the peptide text is derived from it. Bridges are numbered along the chain shown (N, C = ends). [ ]: non-standard residue; d: D form. The star is where a group is joined. hTyr(3S-OH,4S-OH,3'-OSO3H) = N[C@H](C(=O)O)[C@H](O)[C@@H](O)c1ccc(O)c(OS(=O)(=O)O)c1; Orn(4R-OH,5R-OH) = O=C([C@H](C[C@@H](O)[C@@H](O)N[*:3])N[*:1])[*:2]; Pro(3S-OH,4S-Me) = C[C@H]1CN[C@H](C(=O)O)[C@H]1O; Gln(3R-OH) = NC(=O)C[C@@H](O)[C@H](N)C(=O)O; Palmitoyl = CCCCCCCCCCCCCCCC(=O)*; Hyp = O=C(O)[C@@H]1C[C@@H](O)CN1; X2 = CCCCCCCCCCCC(O)CC(=O)*

Key:
[1] = tested on: P. falciparum 3D7 parasites; assay: P. falciparum growth inhibition assay, 1-cycle (72 h treatment), SYBR DNA staining (library screen at 2 μg/mL and dose-response); format: cell-based, Plasmodium falciparum; details: for activity at 2 µg/mL: Plasmodium falciparum, 3D7
[2] = tested on: P. falciparum 3D7 parasites; assay: P. falciparum growth inhibition assay, 2-cycle (120 h treatment), delayed-death screen and dose-response; format: cell-based, Plasmodium falciparum; details: for activity at 2 µg/mL: Plasmodium falciparum, 3D7
[3] = tested on: T. gondii RH strain (RH-Tub-eYFP) tachyzoites; assay: microbe, parasite or virus in culture; format: cell-based, Toxoplasma gondii; details: 72 h, 72 h; for percent parasite growth at 2 µg/mL: Toxoplasma gondii
[4] = P. falciparum 3D7, 72 h, parasite screen at 2 μg/mL, % growth, replicate 1
[5] = P. falciparum 3D7, 72 h, parasite screen at 2 μg/mL, % growth, replicate 2
[6] = P. falciparum 3D7, 120 h, parasite screen at 2 μg/mL, % growth, replicate 1
[7] = P. falciparum 3D7, 120 h, parasite screen at 2 μg/mL, % growth, replicate 2
[8] = T. gondii, parasite screen at 2 μg/mL, % growth, replicate 1
[9] = T. gondii, parasite screen at 2 μg/mL, % growth, replicate 2
[10] = P. falciparum 3D7, 72 h, library screen at 2 μg/mL, % growth, replicate 1
[11] = P. falciparum 3D7, 72 h, library screen at 2 μg/mL, % growth, replicate 2
[12] = P. falciparum 3D7, 120 h, library screen at 2 μg/mL, % growth, replicate 1
[13] = P. falciparum 3D7, 120 h, library screen at 2 μg/mL, % growth, replicate 2
[14] = T. gondii RH, library screen at 2 μg/mL, % growth, replicate 1
[15] = T. gondii RH, library screen at 2 μg/mL, % growth, replicate 2
[16] = library screen at 2 μg/mL, 72 h, % growth, replicate 1
[17] = library screen at 2 μg/mL, 72 h, % growth, replicate 2
[18] = library screen at 2 μg/mL, 120 h, % growth, replicate 1
[19] = library screen at 2 μg/mL, 120 h, % growth, replicate 2
[20] = library screen at 2 μg/mL, % growth, replicate 1
[21] = library screen at 2 μg/mL, % growth, replicate 2
[22] = P. falciparum, 72 h, screen at 2 μg/mL, replicate 1
[23] = P. falciparum, 72 h, screen at 2 μg/mL, replicate 2
[24] = P. falciparum, 120 h, screen at 2 μg/mL, replicate 1
[25] = P. falciparum, 120 h, screen at 2 μg/mL, replicate 2
[26] = T. gondii, screen at 2 μg/mL, replicate 1
[27] = T. gondii, screen at 2 μg/mL, replicate 2

Compound: O=C(O)[C@H]1/C(=C/CO)O[C@@H]2CC(=O)N21 [Clavulanate potassium]
- activity at 2 µg/mL ([1]; P. falciparum, 72 h, screen at 2 μg/mL, replicate 1, read-out: Pf_72h_%Growth_Rep1): 85.1%
- activity at 2 µg/mL ([1]; P. falciparum, 72 h, screen at 2 μg/mL, replicate 2, read-out: Pf_72h_%Growth_Rep2): 88.1%
- activity at 2 µg/mL ([2]; P. falciparum, 120 h, screen at 2 μg/mL, replicate 1, read-out: Pf_120h_%Growth_Rep1): 88.4%
- activity at 2 µg/mL ([2]; P. falciparum, 120 h, screen at 2 μg/mL, replicate 2, read-out: Pf_120h_%Growth_Rep2): 86.6%
- percent parasite growth at 2 µg/mL ([3]; T. gondii, screen at 2 μg/mL, replicate 1, read-out: Tg_72h_%Growth_Rep1): 102%
- percent parasite growth at 2 µg/mL ([3]; T. gondii, screen at 2 μg/mL, replicate 2, read-out: Tg_72h_%Growth_Rep2): 102%

Compound: CCCCCCCCCCCC(O)CC(=O)NC(CC(C)C)C(=O)NC(CCC(=O)O)C(=O)NC1C(=O)NC(C(C)CC)C(=O)NC(CC(C)C)C(=O)NC(CO)C(=O)NC(CC(C)C)C(=O)NC(CC(C)C)C(=O)NC(CO)C(=O)NC(C(C)C)C(=O)OC1C (stereo not drawn) [BIA-O1430] (X2-LETILSLLSV; ester 3-C; configuration not given here)
- Pf_72h_%Growth_Rep1 [1, 4]: 78.47%
- Pf_72h_%Growth_Rep2 [1, 5]: 76.87%
- Pf_120h_%Growth_Rep1 [2, 6]: 85.46%
- Pf_120h_%Growth_Rep2 [2, 7]: 72.71%
- Tg_72h_%Growth_Rep1 [3, 8]: 121.77%
- Tg_72h_%Growth_Rep2 [3, 9]: 92.49%

Compound: CCC(C=CC1OC(=O)C=CC1C)=CC(C)CC=CC(C)=CC(C)C(=O)C(C)C(O)C(C)CC(C)=CC(=O)O (stereo not drawn) [BIA-L1046]
- Pf_72h_%Growth_Rep1 [1, 10]: 6.41%
- Pf_72h_%Growth_Rep2 [1, 11]: 2.57%
- Pf_120h_%Growth_Rep1 [2, 12]: 2.03%
- Pf_120h_%Growth_Rep2 [2, 13]: 15.00%
- Tg_72h_%Growth_Rep1 [3, 14]: 1.37%
- Tg_72h_%Growth_Rep2 [3, 15]: 0.53%

Compound: Cc1c2ccocc-2oc1=O [BIA-K1791]
- Pf_72h_%Growth_Rep1 [1, 10]: 78.18%
- Pf_72h_%Growth_Rep2 [1, 11]: 121.18%
- Pf_120h_%Growth_Rep1 [2, 12]: 94.18%
- Pf_120h_%Growth_Rep2 [2, 13]: 112.81%
- Tg_72h_%Growth_Rep1 [3, 14]: 112.84%
- Tg_72h_%Growth_Rep2 [3, 15]: 99.08%

Compound: CCCCCCCCCCCCCCCC(=O)N[C@H]1C[C@@H](O)[C@@H](O)NC(=O)[C@@H]2[C@@H](O)[C@@H](C)CN2C(=O)[C@H]([C@H](O)CC(N)=O)NC(=O)[C@H]([C@H](O)[C@@H](O)c2ccc(O)c(OS(=O)(=O)O)c2)NC(=O)[C@@H]2C[C@@H](O)CN2C(=O)[C@H]([C@@H](C)O)NC1=O [FR 901379] (Palmitoyl-[Orn(4R-OH,5R-OH)]T[Hyp][hTyr(3S-OH,4S-OH,3'-OSO3H)][Gln(3R-OH)][Pro(3S-OH,4S-Me)]; lactam 1-C)
- Pf_72h_%Growth_Rep1 [1, 16]: 84.19%
- Pf_72h_%Growth_Rep2 [1, 17]: 83.86%
- Pf_120h_%Growth_Rep1 [2, 18]: 96.37%
- Pf_120h_%Growth_Rep2 [2, 19]: 99.58%
- Tg_72h_%Growth_Rep1 [3, 20]: 119.40%
- Tg_72h_%Growth_Rep2 [3, 21]: 105.49%

Compound: CC(C)C[C@@H]1NC(=O)[C@H](Cc2c[nH]c3ccccc23)NC1=O [Cyclo(L-Leu-L-Trp)]
- Pf_72h_%Growth_Rep1 [1, 22]: 84.12%
- Pf_72h_%Growth_Rep2 [1, 23]: 86.68%
- Pf_120h_%Growth_Rep1 [2, 24]: 80.44%
- Pf_120h_%Growth_Rep2 [2, 25]: 87.76%
- Tg_72h_%Growth_Rep1 [3, 26]: 106.88%
- Tg_72h_%Growth_Rep2 [3, 27]: 106.90%

Compound: CC1CC=CC=CC=CC=CC(OC2OC(C)C(O)C(N)C2O)CC2OC(O)(CC(O)CC3OC3C=CC(=O)O1)CC(O)C2C(=O)O (stereo not drawn) [BIA-P1210]
- Pf_72h_%Growth_Rep1 [1, 4]: 82.66%
- Pf_72h_%Growth_Rep2 [1, 5]: 61.24%
- Pf_120h_%Growth_Rep1 [2, 6]: 62.24%
- Pf_120h_%Growth_Rep2 [2, 7]: 79.36%
- Tg_72h_%Growth_Rep1 [3, 8]: 91.98%
- Tg_72h_%Growth_Rep2 [3, 9]: 100.38%

Compound: C/C1=C\[C@H](C)C[C@H](C)[C@H](Cc2cnco2)OC(=O)/C(C)=C/CC[C@H](C)[C@H](Cc2cnco2)OC1=O [Conglobatin B]
- Pf_72h_%Growth_Rep1 [1, 22]: 81.21%
- Pf_72h_%Growth_Rep2 [1, 23]: 81.29%
- Pf_120h_%Growth_Rep1 [2, 24]: 80.47%
- Pf_120h_%Growth_Rep2 [2, 25]: 86.62%
- Tg_72h_%Growth_Rep1 [3, 26]: 184.82%
- Tg_72h_%Growth_Rep2 [3, 27]: 99.16%

Compound: CN1C(=O)c2ccccc2NC(=O)[C@]12O[C@@H]2c1ccccc1 [Cyclopenin]
- Pf_72h_%Growth_Rep1 [1, 22]: 83.83%
- Pf_72h_%Growth_Rep2 [1, 23]: 77.00%
- Pf_120h_%Growth_Rep1 [2, 24]: 83.48%
- Pf_120h_%Growth_Rep2 [2, 25]: 80.30%
- Tg_72h_%Growth_Rep1 [3, 26]: 136.91%
- Tg_72h_%Growth_Rep2 [3, 27]: 103.54%

Compound: C=CC(C)(C)C12CC3C(=O)Nc4ccccc4C(=O)N3C1Nc1ccccc12 (stereo not drawn) [Aszonalenin]
- Pf_72h_%Growth_Rep1 [1, 16]: 81.55%
- Pf_72h_%Growth_Rep2 [1, 17]: 89.57%
- Pf_120h_%Growth_Rep1 [2, 18]: 90.27%
- Pf_120h_%Growth_Rep2 [2, 19]: 94.67%
- Tg_72h_%Growth_Rep1 [3, 20]: 156.81%
- Tg_72h_%Growth_Rep2 [3, 21]: 98.02%
